# According to US9827177B2, “Antiperspirant products with protein and antiperspirant salts” (Colgate-Palmolive Company, priority 2012, dated 2017):
# Columns and labels:
# [1] = Hydrolysis reaction: turbidity and pH of diluted ZLC solutions before and after aging; type: physicochemical; conditions: for pH after aging / turbidity after aging (NTU): aged 37° C. over 5 hours; for initial turbidity (NTU): before aging
# Procedure: Hydrolysis reaction: A 185 mg/ml ZLC solution is prepared and diluted several-fold and aged in a 37° C. oven over 5 hours for turbidity studies. […] Turbidity of the solutions is measured using a nephelometer, results being given in nephelometric turbidity units (NTU).
# The precipitates formed in the 8×, 16× and 32× diluted solutions are collected by centrifugation and identified as crystalline ZnO by PXRD. From the supernatant, a single crystal is grown and shown by X-ray diffraction to be Lysine Monohydrochloride Dihydrate (Lysine.HCl.2H2O).
# [2] = biological target: T1, Bovine Serum Albumin (BSA) (Bos taurus, UniProt P02769); test: Flocculation of ZLC in the presence of protein (turbidity, pH); type: physicochemical; conditions: 5 hours at 37° C.
# T1 construct: is a serum albumin protein derived from the blood of cattle; from tissue; host or cells: blood of cattle
# T1 sequence (P02769 25-607): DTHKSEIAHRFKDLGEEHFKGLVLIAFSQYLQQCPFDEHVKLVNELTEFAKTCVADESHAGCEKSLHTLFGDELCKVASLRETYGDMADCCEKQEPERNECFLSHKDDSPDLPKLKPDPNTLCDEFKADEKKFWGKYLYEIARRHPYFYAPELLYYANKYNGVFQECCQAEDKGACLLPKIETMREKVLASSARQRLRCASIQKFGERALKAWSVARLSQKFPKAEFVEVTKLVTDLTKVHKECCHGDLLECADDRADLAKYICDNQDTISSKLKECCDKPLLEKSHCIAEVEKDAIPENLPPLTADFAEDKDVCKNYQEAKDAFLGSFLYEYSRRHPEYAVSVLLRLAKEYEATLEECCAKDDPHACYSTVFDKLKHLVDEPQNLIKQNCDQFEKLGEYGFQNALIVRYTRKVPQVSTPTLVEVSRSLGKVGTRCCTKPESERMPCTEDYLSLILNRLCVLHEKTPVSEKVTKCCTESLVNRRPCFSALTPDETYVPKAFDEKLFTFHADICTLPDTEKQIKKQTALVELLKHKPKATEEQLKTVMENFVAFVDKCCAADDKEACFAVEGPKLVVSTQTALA
# Procedure: Turbidity and pH of solutions are measured 5 hours after the mixtures were placed in a 37° C. oven, and the results are shown in Table 3.
# [3] = tested on: bacterial lawn on TSA plates; test: Zone of inhibition test; type: cell-based; conditions: 20 μl on filter paper discs, 20 hours at 37° C.; compared with zinc oxide and lysine hydrochloride
# Procedure: A zone of inhibition test is conducted on several materials: zinc oxide, lysine hydrochloride, and ZLC. The method involves making a lawn of freshly prepared bacterial culture on TSA (trypticase soy agar) plates. Sterile filter paper discs are seeded with 20 μl of test sample (supernatant or mixture). Sample-coated filter paper discs are air dried and applied onto the bacterial lawn on TSA plates. Plates are incubated for 20 hours at 37° C.
# [4] = Precipitation of ZLC-BSA mixture solutions at adjusted pH; type: physicochemical; conditions: pure solution, pH 3-11
# From the text: The pH of the solutions is adjusted to 3, 4, 5, 6, 7, 8, 9, 10 and 11 to observe the formation of precipitation. Precipitate is formed in all solutions at pH ranging from 3 to 5. […] All solutions appear clear at pH 8. A small amount of precipitation is also found at pH 9 and 10. At pH 11, precipitate is formed in all solutions. […] The formation of precipitation in acid pH requires both ZLC and BSA to be present in solution.
# [5] = sample 1: DI water, 0% BSA, ZLC about 0.98% w/w or 15 mg/ml
# [6] = sample 2: 1% BSA, pH 7.2, ZLC about 0.96% w/w or 15 mg/ml
# [7] = sample 3: 1% BSA, pH adjusted to 5.1, ZLC about 0.96% w/w or 15 mg/ml
smiles,measurement,setting,value
"NCCCCC(N)C(=O)O.NCCCCC(N)C(=O)O.O.O.[Cl-].[Cl-].[Zn+2] (stereo not drawn) [ZLC, zinc-lysine-HCl complex]",pH after aging,[1]; 5.78 mg/ml ZLC solution,8
same,turbidity after aging (NTU),[1]; 5.78 mg/ml ZLC solution,>1000 NTU
same,pH after aging,[1]; 11.56 mg/ml ZLC solution,7.8
same,turbidity after aging (NTU),[1]; 11.56 mg/ml ZLC solution,>1000 NTU
same,pH after aging,[1]; 23.125 mg/ml ZLC solution,7.7
same,initial turbidity (NTU),[1]; 23.125 mg/ml ZLC solution,0.7 NTU
same,pH after aging,[1]; 46.25 mg/ml ZLC solution,7.4
same,turbidity after aging (NTU),[1]; 46.25 mg/ml ZLC solution,2.8 NTU
same,initial turbidity (NTU),[1]; 46.25 mg/ml ZLC solution,1.5 NTU
same,pH after aging,[1]; 92.5 mg/ml ZLC solution,7
same,turbidity after aging (NTU),[1]; 92.5 mg/ml ZLC solution,2.6 NTU
same,initial turbidity (NTU),[1]; 92.5 mg/ml ZLC solution,2.8 NTU
same,observation on dilution of the solution,[1]; 185 mg/ml ZLC solution diluted several-fold,A white precipitate forms as the solution is diluted
same,pH after aging,[1]; 185 mg/ml ZLC solution,6.8
same,turbidity after aging (NTU),[1]; 185 mg/ml ZLC solution,4.1 NTU
same,initial turbidity (NTU),[1]; 185 mg/ml ZLC solution,4.7 NTU
same,stability of the complex upon dilution,"[1]; 8×, 16× and 32× diluted solutions, precipitate identified as ZnO by PXRD","disassociates upon dilution, with consequent precipitation of zinc oxide"
same,observation,[2]; [5],becomes slightly cloudy
same,pH,[2]; [5],8
same,Turbidity (NTU),[2]; [6],>1000 NTU
same,observation,[2]; [6],a lot white precipitate
same,pH,[2]; [6],8.2
same,Turbidity (NTU),[2]; [7],>1000 NTU
same,observation,[2]; [7],a lot white precipitate
same,pH,[2]; [7],8
same,antibacterial activity (zone of inhibition),[3],better antibacterial activity than zinc oxide alone or lysine hydrochloride alone
same,formation of precipitation,[4],No precipitation
